How the values were obtained:
Oryctolagus cuniculus = species on record: Oryctolagus cuniculus; test: Inhibition of rabbit platelet rich plasma aggregation induced by 500 uM of arachidonic acid; format: functional
Rattus norvegicus [1] = species on record: Rattus norvegicus; test: Inhibitory activity against rat thoracic aorta contraction induced by 30 nM U-46619; format: functional
Rattus norvegicus [2] = species on record: Rattus norvegicus; test: Inhibition of rat washed platelet aggregation induced by 4 ug/mL of collagen; format: functional
Homo sapiens [3] = species on record: Homo sapiens; test: The synthesis of cyclooxygenase or lipoxygenase derived products (HHT and HETE) in human washed platelets at dose of 20 uM; format: functional, organism-based
Homo sapiens [4] = species on record: Homo sapiens; test: Effect on the synthesis of metabolites of arachidonic acid in human platelets; format: functional
Homo sapiens [5] = species on record: Homo sapiens; test: Effect on the synthesis of Thromboxane A2 at dose of 20 uM; format: functional, organism-based
Homo sapiens [6] = species on record: Homo sapiens; test: The synthesis of cyclooxygenase or lipoxygenase derived products (HHT and HETE) in human washed platelets; format: functional
Homo sapiens [7] = species on record: Homo sapiens; test: Effect on the synthesis of Thromboxane A2; format: functional, organism-based
Homo sapiens [8] = species on record: Homo sapiens; test: Effect on cyclooxygenase or lipoxygenase derived products(HHT and HETE) in human washed platelets at dose of 1 uM expressed as percent of radioactivity recovered; format: functional
Homo sapiens [9] = species on record: Homo sapiens; test: Effect on cyclooxygenase or lipoxygenase derived products (HHT and HETE) in human washed platelets at a dose of 10 uM as percent of radioactivity recovered; format: functional
Homo sapiens [10] = species on record: Homo sapiens; test: Effect on the synthesis of metabolites of arachidonic acid in human platelets at a dose of 1 uM; format: functional
Homo sapiens [11] = species on record: Homo sapiens; test: Effect on the synthesis of metabolites of arachidonic acid in human platelets at dose of 10 uM expressed as percent of radioactivity recovered; format: functional
[12] = target: T1, Thromboxane-A synthase (Homo sapiens) (UniProt P24557); test: Inhibition of thromboxane A2 synthetase from human platelets by 10 uM expressed as percent of radioactivity recovered
T1 sequence (whole entry): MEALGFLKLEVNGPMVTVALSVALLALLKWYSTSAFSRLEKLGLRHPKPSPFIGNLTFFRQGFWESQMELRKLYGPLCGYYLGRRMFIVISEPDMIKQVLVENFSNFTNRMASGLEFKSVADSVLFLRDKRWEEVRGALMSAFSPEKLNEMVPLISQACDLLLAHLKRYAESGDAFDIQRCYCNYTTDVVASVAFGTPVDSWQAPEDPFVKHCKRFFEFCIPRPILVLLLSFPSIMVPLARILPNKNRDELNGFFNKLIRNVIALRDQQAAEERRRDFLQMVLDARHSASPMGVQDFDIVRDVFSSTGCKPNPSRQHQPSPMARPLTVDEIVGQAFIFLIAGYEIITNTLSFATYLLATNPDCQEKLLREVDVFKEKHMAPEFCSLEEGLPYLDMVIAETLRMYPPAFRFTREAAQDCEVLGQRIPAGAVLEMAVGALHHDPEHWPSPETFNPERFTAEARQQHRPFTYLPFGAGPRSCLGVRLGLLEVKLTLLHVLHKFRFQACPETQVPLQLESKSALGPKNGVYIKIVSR

[13] = Rattus norvegicus, Thoracic aorta

Structure (SMILES)	IC50 (Oryctolagus cuniculus; Oryctolagus cuniculus, Plasma) [nM]	IC50 (Rattus norvegicus [1]; [13]) [nM]	IC50 (Rattus norvegicus [2]; Rattus norvegicus) [nM]	further results
O=C(O)CCC/C=C\C[C@H]1[C@@H]2CCC(C2)[C@@H]1NC(=O)c1ccccc1	> 800000	3410	450	
O=C(O)CCC/C=C\C[C@H]1[C@@H]2CCC(C2)[C@@H]1NS(=O)(=O)c1ccccc1 (single isomer, unassigned; (-))				IC50 (Oryctolagus cuniculus): 7400 nM; IC50 (Rattus norvegicus [1]): 15.3 nM; IC50 (Rattus norvegicus [2]): 13.4 nM
COc1ccc2c(c1)c(CC(=O)O)c(C)n2C(=O)c1ccc(Cl)cc1				Recovery (Homo sapiens [3]): 15%; Recovery (Homo sapiens [4]): 28.4%; Recovery (Homo sapiens [5]): 0.34%
O=C(O)CCC/C=C\C[C@H]1[C@@H]2CCC(C2)[C@@H]1NS(=O)(=O)c1ccccc1 (stereo in doubt; 14a) [listing 1 of 2 here]				IC50 (Rattus norvegicus [1]): 1.4 nM; IC50 (Rattus norvegicus [2]): 2.9 nM
CCCCCc1ccc(S(=O)(=O)N[C@H]2C3CC[C@H](C3)[C@@H]2C/C=C\CCCC(=O)O)cc1	800000		14.5	
O=C(O)CCC/C=C\C[C@H]1[C@@H]2CCC(C2)[C@@H]1NS(=O)(=O)c1ccc(-c2ccccc2)cc1	200000	9.8	6	
O=C(O)c1ccc(OCCn2ccnc2)cc1				Recovery (Homo sapiens [6]): 19.3%; Recovery (Homo sapiens [7]): 0.74%; Recovery (Homo sapiens [4]): 11.8%
CCCCCCS(=O)(=O)N[C@H]1C2CC[C@H](C2)[C@@H]1C/C=C\CCCC(=O)O	13300	17.2	19	
O=C(O)CCC/C=C\C[C@H]1[C@@H]2CCC(C2)[C@@H]1NS(=O)(=O)c1ccc(C(=O)O)cc1	800000		> 1000	
CS(=O)(=O)N[C@H]1C2CC[C@H](C2)[C@@H]1C/C=C\CCCC(=O)O	640000	1580	370	
O=C(O)CCC/C=C\C[C@H]1[C@@H]2CCC(C2)[C@@H]1NS(=O)(=O)c1ccccc1 (stereo in doubt; 14a) [listing 2 of 2 here]				Recovery (Homo sapiens [8]): 24%; Recovery (Homo sapiens [9]): 23.2%; Recovery (Homo sapiens [10]): 14.3%; Recovery (Homo sapiens [11]): 14.2%; Recovery [12]: 2.1%
O=C(O)CCC/C=C\C[C@H]1[C@@H]2CCC(C2)[C@@H]1NS(=O)(=O)c1ccccc1 (single isomer, unassigned; (+))				IC50 (Oryctolagus cuniculus): 600 nM; IC50 (Rattus norvegicus [1]): 0.49 nM; IC50 (Rattus norvegicus [2]): 1.8 nM
O=C(O)CCC/C=C\C[C@H]1[C@@H]2CCC(C2)[C@@H]1NS(=O)(=O)Cc1ccccc1	113000	111	26	
O=C(O)CCC/C=C\C[C@H]1[C@@H]2CCC(C2)[C@@H]1NS(=O)(=O)CCCc1ccccc1	14000	10.9	10.9	
O=C(O)CCC/C=C\C[C@@H]1[C@H](CNNC(=O)Nc2ccccc2)[C@H]2CC[C@H]1O2	9000	14.5	3	

Second part, led by results:

IC50 (Oryctolagus cuniculus; Oryctolagus cuniculus, Plasma) [nM]	IC50 (Rattus norvegicus [1]; [13]) [nM]	IC50 (Rattus norvegicus [2]; Rattus norvegicus) [nM]	Structure (SMILES)	further results
500	0.7	2.4	Cc1ccc(S(=O)(=O)N[C@H]2C3CC[C@H](C3)[C@@H]2C/C=C\CCCC(=O)O)cc1	
500		4	O=C(O)CCC/C=C\C[C@H]1[C@@H]2CCC(C2)[C@@H]1NS(=O)(=O)c1ccc(O)cc1	
1700	3.2	5.6	Cc1cccc(S(=O)(=O)N[C@H]2C3CC[C@H](C3)[C@@H]2C/C=C\CCCC(=O)O)c1	
4600	1.5	3.3	CCc1ccc(S(=O)(=O)N[C@H]2C3CC[C@H](C3)[C@@H]2C/C=C\CCCC(=O)O)cc1	
6200	3.7	4.3	Cc1ccccc1S(=O)(=O)N[C@H]1C2CC[C@H](C2)[C@@H]1C/C=C\CCCC(=O)O	
1700		3.9	COc1ccc(S(=O)(=O)N[C@H]2C3CC[C@H](C3)[C@@H]2C/C=C\CCCC(=O)O)cc1	
600		2.9	O=C(O)CCC/C=C\C[C@H]1[C@@H]2CCC(C2)[C@@H]1NS(=O)(=O)c1ccc(F)cc1	
1100	2.7	2.7	O=C(O)CCC/C=C\C[C@H]1[C@@H]2CCC(C2)[C@@H]1NS(=O)(=O)c1cccc2ccccc12	
300		2.9	O=C(O)CCC/C=C\C[C@H]1[C@@H]2CCC(C2)[C@@H]1NS(=O)(=O)c1ccc(Cl)cc1	
1400		8.9	O=C(O)CCC/C=C\C[C@H]1[C@@H]2CCC(C2)[C@@H]1NS(=O)(=O)c1ccc([N+](=O)[O-])cc1	
7100		52	CN(C)c1ccc(S(=O)(=O)N[C@H]2C3CC[C@H](C3)[C@@H]2C/C=C\CCCC(=O)O)cc1	
8200	3.4	3.7	O=C(O)CCC/C=C\C[C@H]1[C@@H]2CCC(C2)[C@@H]1NS(=O)(=O)CCc1ccccc1	

Source: ChEMBL document CHEMBL1124211, “Synthesis and in vitro activity of various derivatives of a novel thromboxane receptor antagonist, (+/-)-(5Z)-7-[3-endo-[(phenylsulfonyl)amino]bicyclo[2.2.1] hept-2-exo-yl]heptenoic acid” (J Med Chem, 1988)
